Experimental data as given in ChEMBL document CHEMBL1201862, “PubChem BioAssay data set” (2004).
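Test compounds were applied to cells in 96-well plates for 48 hours at 5 doses. GI50 marks 50% less growth.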 Activity calls are given as the source filed them. Rule as the data show it: active = GI50 up to about 1.1 µM and inactive = higher.

Assays:
Assay in all cases: DTP human tumour cell line panel, 48 h
[1] = system: A498
[2] = system: A549
[3] = system: CAKI-1
[4] = system: CCRF-CEM
[5] = system: COLO 205
[6] = system: DLD-1
[7] = system: DMS-114
[8] = system: DMS-273
[9] = system: EKVX
[10] = system: HCC 2998
[11] = system: HCT-116
[12] = system: HCT-15
[13] = system: HL-60
[14] = system: HOP-18
[15] = system: HOP-62
[16] = system: HOP-92
[17] = system: HT-29
[18] = system: K562
[19] = system: KM-20L2
[20] = system: KM12
[21] = system: LOX IMVI
[22] = system: M19-MEL
[23] = system: MCF7
[24] = system: MOLT-4
[25] = system: Malme-3M
[26] = system: NCI-H226
[27] = system: NCI-H23
[28] = system: NCI-H460
[29] = system: NCI-H522
[30] = system: NCI/ADR-RES
[31] = system: OVCAR-3
[32] = system: OVCAR-4
[33] = system: OVCAR-5
[34] = system: OVCAR-8
[35] = system: RXF 393
[36] = system: SF-268
[37] = system: SF-295
[38] = system: SF-539
[39] = system: SK-MEL-28
[40] = system: SK-MEL-2
[41] = system: SK-MEL-5
[42] = system: SK-OV-3
[43] = system: SN12C
[44] = system: SNB-19
[45] = system: SNB-75
[46] = system: SNB-78
[47] = system: SW-620
[48] = system: U-251
[49] = system: UACC-257
[50] = system: UACC-62
[51] = system: UO-31
[52] = system: XF498
[53] = system: IGROV-1
[54] = system: RPMI-8226

Q: `COc1ccc2c(c1)CCCc1cn[nH]c1-2` was tested. Which GI50 [1] did it give?
A: > 100 µM (inactive)

Q: And the GI50 [2]?
A: > 100 µM (inactive)

Q: And the GI50 [3]?
A: 77.8 µM (inactive)

Q: What about the GI50 [4] of the same molecule?
A: > 72.4 µM (inactive)

Q: What about the GI50 [5] of the same molecule?
A: > 100 µM (inactive)

Q: What about the GI50 [6] of the same molecule?
A: > 100 µM (inactive)

Q: What about the GI50 [7] of the same molecule?
A: > 100 µM (inactive)

Q: And the GI50 [8]?
A: > 100 µM (inactive)

Q: And the GI50 [9]?
A: > 74.6 µM (inactive)

Q: What about the GI50 [10] of the same molecule?
A: > 100 µM (inactive)

Q: And the GI50 [11]?
A: > 100 µM (inactive)

Q: And the GI50 [12]?
A: > 100 µM

Q: What about the GI50 [13] of the same molecule?
A: > 100 µM (inactive)

Q: And the GI50 [14]?
A: > 100 µM (inactive)

Q: What about the GI50 [15] of the same molecule?
A: > 100 µM (inactive)

Q: And the GI50 [16]?
A: > 100 µM (inactive)

Q: What about the GI50 [17] of the same molecule?
A: > 100 µM (inactive)

Q: And the GI50 [18]?
A: > 65.8 µM (inactive)

Q: What about the GI50 [19] of the same molecule?
A: > 100 µM (inactive)

Q: What about the GI50 [20] of the same molecule?
A: > 100 µM (inactive)

Q: And the GI50 [21]?
A: > 100 µM (inactive)

Q: What about the GI50 [22] of the same molecule?
A: > 100 µM (inactive)

Q: And the GI50 [23]?
A: > 100 µM (inactive)

Q: What about the GI50 [24] of the same molecule?
A: > 100 µM (inactive)

Q: What about the GI50 [25] of the same molecule?
A: > 100 µM (inactive)

Q: And the GI50 [26]?
A: > 100 µM (inactive)

Q: And the GI50 [27]?
A: > 100 µM (inactive)

Q: And the GI50 [28]?
A: > 100 µM (inactive)

Q: And the GI50 [29]?
A: > 100 µM (inactive)

Q: And the GI50 [30]?
A: > 100 µM (inactive)

Q: And the GI50 [31]?
A: > 100 µM (inactive)

Q: What about the GI50 [32] of the same molecule?
A: > 100 µM (inactive)

Q: And the GI50 [33]?
A: > 100 µM (inactive)

Q: And the GI50 [34]?
A: > 100 µM (inactive)

Q: And the GI50 [35]?
A: > 89.1 µM (inactive)

Q: And the GI50 [36]?
A: > 100 µM (inactive)

Q: And the GI50 [37]?
A: > 100 µM (inactive)

Q: What about the GI50 [38] of the same molecule?
A: > 100 µM (inactive)

Q: And the GI50 [39]?
A: > 100 µM (inactive)

Q: And the GI50 [40]?
A: > 100 µM (inactive)

Q: What about the GI50 [41] of the same molecule?
A: > 100 µM (inactive)

Q: And the GI50 [42]?
A: > 100 µM (inactive)

Q: And the GI50 [43]?
A: > 100 µM (inactive)

Q: And the GI50 [44]?
A: > 100 µM (inactive)

Q: And the GI50 [45]?
A: > 100 µM (inactive)

Q: What about the GI50 [46] of the same molecule?
A: > 100 µM (inactive)

Q: And the GI50 [47]?
A: > 100 µM (inactive)

Q: What about the GI50 [48] of the same molecule?
A: > 100 µM (inactive)

Q: And the GI50 [49]?
A: > 100 µM (inactive)

Q: What about the GI50 [50] of the same molecule?
A: > 100 µM (inactive)

Q: And the GI50 [51]?
A: > 100 µM (inactive)

Q: And the GI50 [52]?
A: > 100 µM (inactive)

Q: What does the source list for `O=C1C2=C(C3=NCCc4c[nH]c1c43)C1(C=C(Br)C(O)C(Br)=C1)CCN2` (stereo not given)?
A: GI50 [1]: 9.95 µM (inactive); GI50 [2]: 3.15 µM (inactive); GI50 [3]: 4.4 µM (inactive); GI50 [4]: 1.96 µM (inactive); GI50 [5]: 0.115 µM (active); GI50 [6]: 1.67 µM (inactive); GI50 [7]: 0.202 µM (active); GI50 [8]: 1.03 µM (active); GI50 [9]: 1.07 µM (active); GI50 [10]: 1.18 µM (inactive); GI50 [11]: 0.625 µM (active); GI50 [12]: 1.16 µM; GI50 [13]: 0.558 µM (active); GI50 [14]: 10.7 µM (inactive); GI50 [15]: 17.9 µM (inactive); GI50 [16]: 2.92 µM (inactive); GI50 [17]: 0.312 µM (active); GI50 [53]: 0.881 µM (active); GI50 [18]: 2.3 µM (inactive); GI50 [19]: 0.317 µM (active); GI50 [20]: 1.82 µM (inactive); GI50 [21]: 0.736 µM (active); GI50 [22]: 0.38 µM (active); GI50 [23]: 0.433 µM (active); GI50 [24]: 0.721 µM (active); GI50 [26]: 3.4 µM (inactive); GI50 [27]: 0.792 µM (active); GI50 [28]: 2.33 µM (inactive); GI50 [29]: 0.284 µM (active); GI50 [30]: 0.421 µM (active); GI50 [31]: 1.03 µM (active); GI50 [32]: 1.47 µM (inactive); GI50 [33]: 2.65 µM (inactive); GI50 [34]: 0.647 µM (active); GI50 [54]: 1.9 µM (inactive); GI50 [35]: 2.56 µM (inactive); GI50 [36]: 0.966 µM (active); GI50 [37]: 2.48 µM (inactive); GI50 [38]: 2.05 µM (inactive); GI50 [39]: 7.69 µM (inactive); GI50 [40]: 3.2 µM (inactive); GI50 [41]: 1.07 µM (active); GI50 [42]: 13.3 µM (inactive); GI50 [43]: 1.29 µM (inactive); GI50 [44]: 11.1 µM (inactive); GI50 [45]: 10 µM (inactive); GI50 [46]: 2.79 µM (inactive); GI50 [47]: 0.541 µM (active); GI50 [48]: 2.26 µM (inactive); GI50 [49]: 0.614 µM (active); GI50 [50]: 0.851 µM (active); GI50 [51]: 11.1 µM (inactive); GI50 [52]: 7.67 µM (inactive)
